The record followed here is patent publication US20150368261A1, “CONJUGATES AND SMALL MOLECULES WHICH INTERACT WITH THE CD16A RECEPTOR” (BIOINTEGRATOR LIMITED LIABILITY COMPANY, priority 2013, published 2015).

In this assay the target is CD16a receptor (Homo sapiens, UniProt P08637). As to the kind of experiment: Enzyme immunoassay (ELISA) for binding of proteins and conjugates with CD16a receptor. The following applies: Table 2, interferon alfa and its conjugate (FIG. 17); read-out: Activity (Kd) towards CD16a receptor. As for the experimental part: Determination of conjugate activity towards CD16a receptor. The experiment uses standard materials and equipment for enzyme immunoassay. Into wells of a 96-well plate CD16a was sorbed from a solution of 3.3 μg/ml in PBS in a volume of 75 μl/well. Sorption was carried out at 4° C. during 16 h. CD16a Solution was removed from the plate, wells were filled in with 2% solution of bovine serum albumin (BSA) in PBS-p (150 μl/well). Plates were incubated at 37° C. for 2 h and three times washed with PBS-p (each time by 300 μl/well). Then the wells were filled with solutions of the conjugates in PBSP, 50 μl/well in dilutions from 0.25 to 256 μg/ml. To each dilution of the conjugate three wells corresponded in the plate. In order to control non-specific sorption of samples some wells were filled with […] BSA solution. The plate was incubated 1 h at 37° C. in a shaker for ELISA (rotation speed was 180 rpm). The plate was washed five times with 300 μl/well of PBS-p and filled with a solution of a protein modified with horseradish peroxidase (by 75 μl/well in the working dilution, which is given in the description of immunoconjugate). The plate was incubated for 30 minutes, washed five times with 300 μl/well of PBS-p and filled with a solution of TMB (100 μl/well). […] The optical density in the plate wells was measured at 450 nm at room temperature. […]
Chain of CD16a receptor (P08637 17-254): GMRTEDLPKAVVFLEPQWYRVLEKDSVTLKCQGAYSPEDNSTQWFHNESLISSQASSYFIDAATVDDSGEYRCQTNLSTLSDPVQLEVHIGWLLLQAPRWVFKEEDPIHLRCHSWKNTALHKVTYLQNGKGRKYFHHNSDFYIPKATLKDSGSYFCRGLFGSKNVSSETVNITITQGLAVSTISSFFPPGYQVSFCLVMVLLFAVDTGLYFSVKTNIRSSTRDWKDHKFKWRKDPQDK
A general note: ELISA stands for enzyme-linked immunosorbent assay.

On to interferon alfa, for which the Kd is 0.23 µM.

By Kd is commonly meant the free concentration of one partner at which half of the binding sites on the other are occupied at equilibrium, for simple one-to-one binding.
